Results: patent publication US8410310B2, “Trypsin-like serine protease inhibitors, and their preparation and use” (The Medicines Company (Leipzig) GmbH, priority 2006, dated 2013)
Where two headings read alike, the source gives them in different places.

Legend:
Assay type in all cases: biochemical
[1] = target: plasmin (Homo sapiens, UniProt P00747); assay: Determination of inhibition constants for plasmin; set-up: purchased Calbiochem
Description: (§1) The inhibitory effect for the individual enzymes was determined in analogy to a previously disclosed method (Stürzebecher et al., 1997).
(§2) For zero order kinetics, the reaction was stopped after 20 min by adding 25 μl of acetic acid (50% v/v), and the absorption at 405 nm was determined using a Microplate Reader (Multiscan Ascent, from Thermo). In the case of pseudo-first order kinetics, the reaction rates in the equilibrium state were ascertained by recording the reaction kinetics. The Ki values were ascertained either in accordance with Dixon (1953) by linear regression using a computer program or by parameter fitting in accordance with the rate equation for competitive inhibition. The Ki values are the average of at least two determinations.

[2] = target: plasma kallikrein (Homo sapiens, UniProt P03952); assay: Determination of inhibition constants for PK; set-up: purchased Enzyme Research Lab. / Enzyme Research Laboratories
Description: as §1, §2

[3] = target: Thrombin (Homo sapiens, UniProt P00734); assay: Determination of inhibition constants for thrombin
Description: as §1, §2

[4] = target: Xa (Homo sapiens, UniProt P00742); assay: Determination of inhibition constants for Xa
Description: as §1, §2

[5] = 25° C., substrate Chromozym PL, pH 8.0, read-out: Plasmin [Ki]
[6] = 25° C., substrate S2302, pH 8.0, read-out: PK [Ki]
[7] = summary of results, read-out: Ki value of the plasmin inhibition
[8] = summary of results, read-out: Ki value of the plasma kallikrein inhibition

Chain of Xa (P00742 235-488 limits assumed): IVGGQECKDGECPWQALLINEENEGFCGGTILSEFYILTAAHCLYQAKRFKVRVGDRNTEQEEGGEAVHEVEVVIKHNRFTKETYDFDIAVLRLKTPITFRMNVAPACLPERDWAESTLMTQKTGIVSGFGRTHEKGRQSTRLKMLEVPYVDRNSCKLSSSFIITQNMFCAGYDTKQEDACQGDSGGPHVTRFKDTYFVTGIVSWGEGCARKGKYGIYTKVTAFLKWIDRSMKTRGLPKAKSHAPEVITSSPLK
Chain of Xa (P00742 41-179 limits assumed): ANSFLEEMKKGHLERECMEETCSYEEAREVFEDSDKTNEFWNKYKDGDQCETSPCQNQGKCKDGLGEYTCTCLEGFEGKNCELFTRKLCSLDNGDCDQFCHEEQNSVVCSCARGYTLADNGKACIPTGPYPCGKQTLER
Chain of plasma kallikrein (P03952 391-638 limits assumed): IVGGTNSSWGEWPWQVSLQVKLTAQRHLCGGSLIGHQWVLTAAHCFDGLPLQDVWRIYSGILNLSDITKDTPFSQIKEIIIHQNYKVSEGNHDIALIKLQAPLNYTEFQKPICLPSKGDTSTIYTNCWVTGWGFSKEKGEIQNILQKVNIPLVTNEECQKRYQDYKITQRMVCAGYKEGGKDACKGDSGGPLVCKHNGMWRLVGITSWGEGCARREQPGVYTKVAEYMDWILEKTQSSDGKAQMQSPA
Chain of plasma kallikrein (P03952 20-390 partner limits assumed): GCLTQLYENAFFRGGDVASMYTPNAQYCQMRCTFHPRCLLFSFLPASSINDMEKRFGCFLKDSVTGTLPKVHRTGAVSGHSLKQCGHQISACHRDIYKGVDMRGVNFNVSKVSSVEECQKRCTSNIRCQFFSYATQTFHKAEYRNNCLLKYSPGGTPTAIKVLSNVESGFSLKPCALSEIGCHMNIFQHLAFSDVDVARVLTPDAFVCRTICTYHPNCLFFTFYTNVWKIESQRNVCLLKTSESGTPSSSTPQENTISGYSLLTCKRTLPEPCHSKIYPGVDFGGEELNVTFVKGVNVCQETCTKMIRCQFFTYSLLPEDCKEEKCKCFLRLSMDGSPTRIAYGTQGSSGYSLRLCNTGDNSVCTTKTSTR
Chain of plasmin (P00747 581-810 limits assumed): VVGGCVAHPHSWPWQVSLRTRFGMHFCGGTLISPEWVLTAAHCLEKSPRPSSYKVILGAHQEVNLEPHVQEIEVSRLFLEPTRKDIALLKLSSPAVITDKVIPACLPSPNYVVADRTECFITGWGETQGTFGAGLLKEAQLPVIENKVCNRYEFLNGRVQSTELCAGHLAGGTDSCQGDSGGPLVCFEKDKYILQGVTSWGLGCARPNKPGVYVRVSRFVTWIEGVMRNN
Chain of plasmin (P00747 97-580 partner limits assumed): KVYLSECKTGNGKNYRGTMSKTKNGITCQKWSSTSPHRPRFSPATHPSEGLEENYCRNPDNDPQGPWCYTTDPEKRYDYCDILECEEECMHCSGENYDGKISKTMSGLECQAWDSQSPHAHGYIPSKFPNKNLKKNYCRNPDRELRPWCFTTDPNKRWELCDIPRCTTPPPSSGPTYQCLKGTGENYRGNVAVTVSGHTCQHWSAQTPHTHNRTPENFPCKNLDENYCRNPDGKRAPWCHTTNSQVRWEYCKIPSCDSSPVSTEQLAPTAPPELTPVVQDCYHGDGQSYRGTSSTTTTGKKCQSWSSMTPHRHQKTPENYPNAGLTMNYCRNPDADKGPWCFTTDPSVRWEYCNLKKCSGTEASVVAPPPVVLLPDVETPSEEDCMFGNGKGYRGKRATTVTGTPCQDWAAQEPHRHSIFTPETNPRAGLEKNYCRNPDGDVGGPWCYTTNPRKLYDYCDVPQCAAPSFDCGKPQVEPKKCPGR

N=C(N)c1ccc(CNC(=O)[C@H](Cc2cccc(CN)c2)NC(=O)[C@@H](CCCc2ccccc2)NS(=O)(=O)Cc2ccc(C(=O)O)cc2)cc1 [compound 2]
Ki [1, 5]: < 10 nM
Ki [2, 6]: < 10 nM
Ki [3]: < 1000 nM
Ki [4]: < 100 nM

N=C(N)Nc1ccc(CNC(=O)[C@H](Cc2cccc(CN)c2)NC(=O)[C@@H](CCCc2ccccc2)NS(=O)(=O)Cc2cccc(C(=O)O)c2)cc1 [compound 4, 3-HOOC-Bzls-d-Ppg-Phe(3-Ame)-4-guanidinobenzylamide×2 acetate]
Ki [1, 5]: < 100 nM
Ki [2, 6]: < 10 nM
Ki [3]: > 1000 nM
Ki [4]: > 1000 nM

N=C(N)c1ccc(CNC(=O)[C@H](Cc2cccc(CN)c2)NC(=O)[C@@H](CCCc2ccc(Cl)cc2)NS(=O)(=O)Cc2ccccc2)cc1 [compound 7]
Ki [1, 5]: < 10 nM
Ki [2, 6]: < 10 nM
Ki [3]: < 100 nM
Ki [4]: < 10 nM

N=C(N)c1ccc(CNC(=O)[C@H](Cc2cccc(CN)c2)NC(=O)[C@@H](CCCc2ccccc2Cl)NS(=O)(=O)Cc2ccccc2)cc1 [compound 8]
Ki [1, 5]: < 10 nM
Ki [2, 6]: < 10 nM
Ki [3]: < 100 nM
Ki [4]: < 100 nM

Cc1ccc(CCC[C@@H](NS(=O)(=O)Cc2ccccc2)C(=O)N[C@@H](Cc2cccc(CN)c2)C(=O)NCc2ccc(C(=N)N)cc2)cc1 [compound 9]
Ki [1, 5]: < 10 nM
Ki [2, 6]: < 10 nM
Ki [3]: < 1000 nM
Ki [4]: < 100 nM

COc1ccc(CCC[C@@H](NS(=O)(=O)Cc2ccccc2)C(=O)N[C@@H](Cc2cccc(CN)c2)C(=O)NCc2ccc(C(=N)N)cc2)cc1 [compound 10]
Ki [1, 5]: < 10 nM
Ki [2, 6]: < 10 nM
Ki [3]: < 1000 nM
Ki [4]: < 100 nM

N=C(N)c1ccc(CNC(=O)[C@H](Cc2cccc(CN)c2)NC(=O)[C@@H](CCCc2ccc(C(F)(F)F)cc2)NS(=O)(=O)Cc2ccccc2)cc1 [compound 11]
Ki [1, 5]: < 10 nM
Ki [2, 6]: < 10 nM
Ki [3]: < 1000 nM
Ki [4]: < 10 nM

N=C(N)c1ccc(CNC(=O)[C@H](Cc2cccc(CN)c2)NC(=O)[C@@H](CCCc2ccc(OC(F)(F)F)cc2)NS(=O)(=O)Cc2ccccc2)cc1 [compound 12]
Ki [1, 5]: < 10 nM
Ki [2, 6]: < 10 nM
Ki [3]: < 1000 nM
Ki [4]: < 100 nM

CC(C)(C)c1ccc(C[C@@H](NS(=O)(=O)Cc2ccccc2)C(=O)N[C@@H](Cc2cccc(CN)c2)C(=O)NCc2ccc(C(=N)N)cc2)cc1 [compound 13]
Ki [1, 5]: < 100 nM
Ki [1, 7]: < 5 nM
Ki [2, 6]: < 10 nM
Ki [3]: < 1000 nM
Ki [4]: < 100 nM

N=C(N)c1ccc(CNC(=O)[C@H](Cc2cccc(CN)c2)NC(=O)[C@@H](Cc2ccc(-c3ccccc3)cc2)NS(=O)(=O)Cc2ccccc2)cc1 [compound 14]
Ki [1, 5]: < 10 nM
Ki [1, 7]: < 5 nM
Ki [2, 6]: < 10 nM
Ki [3]: < 1000 nM
Ki [4]: < 100 nM

N=C(N)c1ccc(CNC(=O)[C@H](Cc2cccc(CN)c2)NC(=O)[C@@H](Cc2cccc3ccccc23)NS(=O)(=O)Cc2ccccc2)cc1 [compound 15]
Ki [1, 5]: < 10 nM
Ki [2, 6]: < 10 nM
Ki [3]: < 100 nM
Ki [4]: < 100 nM

N=C(N)c1ccc(CNC(=O)[C@H](Cc2cccc(CN)c2)NC(=O)[C@@H](Cc2cccc3ccccc23)NS(=O)(=O)Cc2ccc(C(=O)O)cc2)cc1 [compound 16]
Ki [1, 5]: < 10 nM
Ki [2, 6]: < 10 nM
Ki [3]: < 1000 nM
Ki [4]: < 1000 nM

N=C(N)c1ccc(CNC(=O)[C@H](Cc2cccc(CN)c2)NC(=O)[C@@H](Cc2ccc3ccccc3c2)NS(=O)(=O)Cc2ccccc2)cc1 [compound 17]
Ki [1, 5]: < 10 nM
Ki [2, 6]: < 10 nM
Ki [3]: < 1000 nM
Ki [4]: < 100 nM

N=C(N)c1ccc(CNC(=O)[C@H](Cc2cccc(CN)c2)NC(=O)[C@@H](Cc2ccc3ccccc3c2)NS(=O)(=O)Cc2cccc(C(=O)O)c2)cc1 [compound 18]
Ki [1, 5]: < 10 nM
Ki [2, 6]: < 10 nM
Ki [3]: > 1000 nM
Ki [4]: < 100 nM

N=C(N)c1ccc(CNC(=O)[C@H](Cc2cccc(CN)c2)NC(=O)[C@@H](Cc2ccc3ccccc3c2)NS(=O)(=O)Cc2ccc(C(=O)O)cc2)cc1 [compound 19]
Ki [1, 5]: < 10 nM
Ki [2, 6]: < 10 nM
Ki [3]: < 1000 nM
Ki [4]: < 1000 nM

N=C(N)c1ccc(CNC(=O)[C@H](Cc2cccc(CN)c2)NC(=O)[C@@H](CC2CCCCC2)NS(=O)(=O)Cc2ccccc2)cc1 [compound 20]
Ki [1, 5]: < 10 nM
Ki [2, 6]: < 10 nM
Ki [3]: < 1000 nM
Ki [4]: < 100 nM

N=C(N)c1ccc(CNC(=O)[C@H](Cc2cccc(CN)c2)NC(=O)[C@@H](CCCC2CCCCC2)NS(=O)(=O)Cc2ccccc2)cc1 [compound 21]
Ki [1, 5]: < 10 nM
Ki [2, 6]: < 10 nM
Ki [3]: < 1000 nM
Ki [4]: < 100 nM

N=C(N)c1ccc(CNC(=O)[C@H](Cc2cccc(CN)c2)NC(=O)[C@H](NS(=O)(=O)Cc2ccccc2)C(c2ccccc2)c2ccccc2)cc1 [compound 22]
Ki [1, 5]: < 10 nM
Ki [2, 6]: < 10 nM
Ki [3]: < 10 nM
Ki [4]: < 100 nM

N=C(N)c1ccc(CNC(=O)[C@H](Cc2cccc(CN)c2)NC(=O)[C@H](NS(=O)(=O)Cc2cccc(C(=O)O)c2)C(c2ccccc2)c2ccccc2)cc1 [compound 23]
Ki [1, 5]: < 10 nM
Ki [2, 6]: < 10 nM
Ki [3]: < 100 nM
Ki [4]: < 100 nM

N=C(N)c1ccc(CNC(=O)[C@H](Cc2cccc(CN)c2)NC(=O)[C@@H](CCc2ccc(O)cc2)NS(=O)(=O)Cc2ccccc2)cc1 [compound 24]
Ki [1, 5]: < 10 nM
Ki [2, 6]: < 10 nM
Ki [3]: < 1000 nM
Ki [4]: < 10 nM

N=C(N)c1ccc(CNC(=O)[C@H](CCc2ccc(CN)cc2)NC(=O)[C@@H](CCc2ccc(O)cc2)NS(=O)(=O)Cc2ccccc2)cc1 [compound 26]
Ki [1, 5]: < 10 nM
Ki [2, 6]: < 10 nM
Ki [3]: < 1000 nM
Ki [4]: < 10 nM

N=C(N)c1ccc(CNC(=O)[C@H](CCc2ccccc2)NC(=O)[C@@H](CCc2ccc(O)cc2)NS(=O)(=O)Cc2ccccc2)cc1 [compound 27]
Ki [1, 5]: < 10 nM
Ki [2, 6]: < 10 nM
Ki [2, 8]: < 1 nM
Ki [3]: < 1000 nM
Ki [4]: < 10 nM

N=C(N)c1ccc(CNC(=O)[C@H](Cc2ccc(CN)cc2)NC(=O)[C@@H](CCCc2ccccc2)NS(=O)(=O)Cc2ccccc2)cc1 [compound 28]
Ki [1, 5]: < 10 nM
Ki [2, 6]: < 10 nM
Ki [3]: < 1000 nM
Ki [4]: < 1000 nM

N=C(N)c1ccc(CNC(=O)[C@H](Cc2ccc(CN)cc2)NC(=O)[C@@H](CCCc2ccccc2)NS(=O)(=O)Cc2ccc(C(=O)O)cc2)cc1 [compound 29]
Ki [1, 5]: < 10 nM
Ki [2, 6]: < 10 nM
Ki [2, 8]: < 1 nM
Ki [3]: < 1000 nM
Ki [4]: < 1000 nM

N=C(N)c1ccc(CNC(=O)[C@H](Cc2ccc(CN)cc2)NC(=O)[C@@H](CCCc2ccccc2)NS(=O)(=O)Cc2cccc(C(=O)O)c2)cc1 [compound 30]
Ki [1, 5]: < 10 nM
Ki [2, 6]: < 10 nM
Ki [3]: > 1000 nM
Ki [4]: < 1000 nM

N=C(N)c1ccc(CNC(=O)[C@H](CCc2ccc(CN)cc2)NC(=O)[C@@H](CCCc2ccccc2)NS(=O)(=O)Cc2ccccc2)cc1 [compound 31]
Ki [1, 5]: < 10 nM
Ki [2, 6]: < 100 nM
Ki [3]: < 100 nM
Ki [4]: < 1000 nM

CC(C)(C)OC[C@@H](NS(=O)(=O)Cc1ccccc1)C(=O)N[C@@H](Cc1cccc(CN)c1)C(=O)NCc1ccc(C(=N)N)cc1 [compound 71]
Ki [4]: > 1000 nM

N=C(N)c1ccc(CNC(=O)[C@H](Cc2cccc(CN)c2)NC(=O)[C@@H](CO)NS(=O)(=O)Cc2ccccc2)cc1 [compound 72]
Ki [2, 6]: < 100 nM
